Experimental data reported in US10189842B2 (Agency for Science, Technology and Research, priority 2013, dated 2019).
pIC50: −log10 of the molar value.

Tested on: HEK293-STF3A cells
Assay: STF3A assay (luciferase reporter)
Type: cell-based, Human
Conditions: Homo sapiens, 24 h, 1 day of treatment
How it was run: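 HEK293 cells carrying the STF reporter and expressing Wnt3A, seeded 2×10^4 per well overnight, then treated 1 day with compound at final 50 μM to 1.5 nM. Luciferase activity read by luminescence after Steady-Glo reagent, 10 min at room temperature.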

In the case of `Cc1cc2n(n1)CCCN2C(=O)CCC(=O)Nc1ccc(N2CCNCC2)cc1` [Compound 77, 4-(2-methyl-6,7-dihydropyrazolo[1,5-a]pyrimidin-4(5H)-yl)-4-oxo-N-(4-(piperazin-1-yl)phenyl)butanamide], the pIC50 was < 5.00.

In the case of `CC(=O)N1CCN(c2ccc(NC(=O)CCC(=O)N3CCCn4nc(C)cc43)cc2)CC1` [Compound 78, N-(4-(4-acetylpiperazin-1-yl)phenyl)-4-(2-methyl-6,7-dihydropyrazolo[1,5-a]pyrimidin-4(5H)-yl)-4-oxobutanamide], the pIC50 was < 5.00.

For `CCNC(=O)N1CCN(c2ccc(NC(=O)CCC(=O)N3CCCn4nc(C)cc43)nc2)CC1` [Compound 79, N-ethyl-4-(6-(4-(2-methyl-6,7-dihydropyrazolo[1,5-a]pyrimidin-4(5H)-yl)-4-oxobutanamido)pyridin-3-yl)piperazine-1-carboxamide], the pIC50 was > 5.30.

In the case of `Cc1cc2n(n1)CCCN2C(=O)CCC(=O)NC1CCC(c2ccccc2)CC1` (centres unmarked) [Compound 80, 4-(2-methyl-6,7-dihydropyrazolo[1,5-a]pyrimidin-4(5H)-yl)-4-oxo-N-(4-phenylcyclohexyl)butanamide], the pIC50 was < 5.00.

In the case of `Cc1cc2n(n1)CCCN2C(=O)CCC(=O)NC1CCN(c2ccccc2)CC1` [Compound 81, 4-(2-methyl-6,7-dihydropyrazolo[1,5-a]pyrimidin-4(5H)-yl)-4-oxo-N-(1-phenylpiperidin-4-yl)butanamide], the pIC50 was < 5.00.

For `Cc1cc2n(n1)CCCN2C(=O)CCC(=O)Nc1ccc(C2CCN(C)CC2)cc1` [Compound 82, 4-(2-methyl-6,7-dihydropyrazolo[1,5-a]pyrimidin-4(5H)-yl)-N-(4-(1-methylpiperidin-4-yl)phenyl)-4-oxobutanamide], the pIC50 was < 5.00.

With `Cc1cc2n(n1)CCCN2C(=O)CCC(=O)Nc1ccc(-c2cccc(Cl)c2)nc1` [Compound 83, N-(6-(3-chlorophenyl)pyridin-3-yl)-4-(2-methyl-6,7-dihydropyrazolo[1,5-a]pyrimidin-4(5H)-yl)-4-oxobutanamide] the pIC50 was > 7.00.

For `Cc1cc2n(n1)CCCN2C(=O)CCC(=O)Nc1ccc(-c2cccc(F)c2)nc1` [Compound 84, N-(6-(3-fluorophenyl)pyridin-3-yl)-4-(2-methyl-6,7-dihydropyrazolo[1,5-a]pyrimidin-4(5H)-yl)-4-oxobutanamide], the pIC50 was > 7.00.

For `Cc1cccc(-c2ccc(NC(=O)CCC(=O)N3CCCn4nc(C)cc43)cn2)c1` [Compound 85, 4-(2-methyl-6,7-dihydropyrazolo[1,5-a]pyrimidin-4(5H)-yl)-4-oxo-N-(6-(m-tolyl)pyridin-3-yl)butanamide], the pIC50 was > 7.00.

`Cc1cc2n(n1)CCCN2C(=O)CCC(=O)Nc1cnc(-c2ccccc2)c(C)c1` [Compound 86, 4-(2-methyl-6,7-dihydropyrazolo[1,5-a]pyrimidin-4(5H)-yl)-N-(5-methyl-6-phenylpyridin-3-yl)-4-oxobutanamide] was tested, and the pIC50 was > 5.30.

In the case of `Cc1cc2n(n1)CCCN2C(=O)CCC(=O)Nc1ccc(-c2ccc(F)cc2)nc1` [Compound 87, N-(6-(4-fluorophenyl)pyridin-3-yl)-4-(2-methyl-6,7-dihydropyrazolo[1,5-a]pyrimidin-4(5H)-yl)-4-oxobutanamide], the pIC50 was > 6.00.

`Cc1cc2n(n1)CCCN2C(=O)CCC(=O)Nc1ccc(-c2cccc(Cl)c2)cn1` [Compound 88] was tested, and the pIC50 was > 7.00.

`Cc1cc2n(n1)CCCN2C(=O)CCC(=O)Nc1ccc(-c2cccc(F)c2)cn1` [Compound 89, N-(5-(3-fluorophenyl)pyridin-2-yl)-4-(2-methyl-6,7-dihydropyrazolo[1,5-a]pyrimidin-4(5H)-yl)-4-oxobutanamide] was tested, and the pIC50 was > 7.00.

`Cc1cc2n(n1)CCCN2C(=O)CCC(=O)Nc1ccc(-c2ccc(F)cc2)cn1` [Compound 90, N-(5-(4-fluorophenyl)pyridin-2-yl)-4-(2-methyl-6,7-dihydropyrazolo[1,5-a]pyrimidin-4(5H)-yl)-4-oxobutanamide] was tested, and the pIC50 was > 7.00.

In the case of `Cc1cc2n(n1)CCCN2C(=O)CCC(=O)Nc1ncc(-c2ccccc2)cc1C` [Compound 91, N-(3-methyl-5-phenylpyridin-2-yl)-4-(2-methyl-6,7-dihydropyrazolo[1,5-a]pyrimidin-4(5H)-yl)-4-oxobutanamide], the pIC50 was > 5.30.

For `Cc1cc2n(n1)CCCN2C(=O)CCC(=O)Nc1cc(C)c(-c2ccccc2)cn1` [Compound 92, N-(4-methyl-5-phenylpyridin-2-yl)-4-(2-methyl-6,7-dihydropyrazolo[1,5-a]pyrimidin-4(5H)-yl)-4-oxobutanamide], the pIC50 was > 6.00.

For `Cc1cccc(-c2ccc(NC(=O)CCC(=O)N3CCCn4nc(C)cc43)nc2)c1` [Compound 93, 4-(2-methyl-6,7-dihydropyrazolo[1,5-a]pyrimidin-4(5H)-yl)-4-oxo-N-(5-(m-tolyl)pyridin-2-yl)butanamide], the pIC50 was > 7.00.

`Cc1cc2n(n1)CCCN2C(=O)CCC(=O)Nc1ccc(-c2ccc(F)cn2)cn1` [Compound 94, N-(5-fluoro-2,3′-bipyridin-6′-yl)-4-(2-methyl-6,7-dihydropyrazolo[1,5-a]pyrimidin-4(5H)-yl)-4-oxobutanamide] was tested, and the pIC50 was > 7.00.

`Cc1cc2n(n1)CCCN2C(=O)CCC(=O)Nc1ccc(-c2cc(F)ccn2)cn1` [Compound 95, N-(4-fluoro-2,3′-bipyridin-6′-yl)-4-(2-methyl-6,7-dihydropyrazolo[1,5-a]pyrimidin-4(5H)-yl)-4-oxobutanamide] was tested, and the pIC50 was > 7.00.

With `Cc1cccc(-c2ccc(NC(=O)CCC(=O)N3CCCn4nc(C)cc43)nc2)n1` [Compound 96, 4-(2-methyl-6,7-dihydropyrazolo[1,5-a]pyrimidin-4(5H)-yl)-N-(6-methyl-[2,3′-bipyridin]-6′-yl)-4-oxobutanamide] the pIC50 was > 7.00.

With `Cc1cc2n(n1)CCCN2C(=O)CCC(=O)Nc1ccc(-c2cccc(Cl)c2)nn1` [Compound 97, N-(6-(3-chlorophenyl)pyridazin-3-yl)-4-(2-methyl-6,7-dihydropyrazolo[1,5-a]pyrimidin-4(5H)-yl)-4-oxobutanamide] the pIC50 was > 7.00.

`Cc1cc2n(n1)CCCN2C(=O)CCC(=O)Nc1ccc(-c2cccc(F)c2)nn1` [Compound 98, N-(6-(3-fluorophenyl)pyridazin-3-yl)-4-(2-methyl-6,7-dihydropyrazolo[1,5-a]pyrimidin-4(5H)-yl)-4-oxobutanamide] was tested, and the pIC50 was > 7.00.

For `Cc1cccc(-c2ccc(NC(=O)CCC(=O)N3CCCn4nc(C)cc43)nn2)c1` [Compound 99, 4-(2-methyl-6,7-dihydropyrazolo[1,5-a]pyrimidin-4(5H)-yl)-4-oxo-N-(6-(m-tolyl)pyridazin-3-yl)butanamide], the pIC50 was > 7.00.

With `Cc1cc2n(n1)CCCN2C(=O)CCC(=O)Nc1ccc(-c2ccc(Cl)cc2)nn1` [Compound 100, N-[6-(4-chlorophenyl)pyridazin-3-yl]-4-{2-methyl-5H,6H,7H-pyrazolo[1,5-a]pyrimidin-4-yl}-4-oxobutanamide] the pIC50 was > 7.00.

For `Cc1cc2n(n1)CCCN2C(=O)CCC(=O)Nc1ccc(-c2ccc(F)cc2)nn1` [Compound 101, N-(6-(4-fluorophenyl)pyridazin-3-yl)-4-(2-methyl-6,7-dihydropyrazolo[1,5-a]pyrimidin-4(5H)-yl)-4-oxobutanamide], the pIC50 was > 7.00.

With `Cc1cc2n(n1)CCCN2C(=O)CCC(=O)Nc1ccc(-c2cncc(Cl)c2)nn1` [Compound 102, N-(6-(5-chloropyridin-3-yl)pyridazin-3-yl)-4-(2-methyl-6,7-dihydropyrazolo[1,5-a]pyrimidin-4(5H)-yl)-4-oxobutanamide] the pIC50 was > 7.00.

For `Cc1cc2n(n1)CCCN2C(=O)CCC(=O)Nc1ccc(-c2cncc(F)c2)nn1` [Compound 103, N-(6-(5-fluoropyridin-3-yl)pyridazin-3-yl)-4-(2-methyl-6,7-dihydropyrazolo[1,5-a]pyrimidin-4(5H)-yl)-4-oxobutanamide], the pIC50 was > 7.00.

With `Cc1cncc(-c2ccc(NC(=O)CCC(=O)N3CCCn4nc(C)cc43)nn2)c1` [Compound 104, 4-(2-methyl-6,7-dihydropyrazolo[1,5-a]pyrimidin-4(5H)-yl)-N-(6-(5-methylpyridin-3-yl)pyridazin-3-yl)-4-oxobutanamide] the pIC50 was > 7.00.

For `Cc1cc2n(n1)CCCN2C(=O)CCC(=O)Nc1ccc(-c2cncc(C(F)(F)F)c2)nn1` [Compound 105, 4-(2-methyl-6,7-dihydropyrazolo[1,5-a]pyrimidin-4(5H)-yl)-4-oxo-N-(6-(5-(trifluoromethyl)pyridin-3-yl)pyridazin-3-yl)butanamide], the pIC50 was > 7.00.

`Cc1cc2n(n1)CCCN2C(=O)CCC(=O)Nc1cc(C)c(-c2cccnc2)nn1` [Compound 106, 4-(2-methyl-6,7-dihydropyrazolo[1,5-a]pyrimidin-4(5H)-yl)-N-(5-methyl-6-(pyridin-3-yl)pyridazin-3-yl)-4-oxobutanamide] was tested, and the pIC50 was > 5.30.

For `Cc1ccc(-c2ccc(NC(=O)CCC(=O)N3CCCn4nc(C)cc43)nn2)cn1` [Compound 107, 4-(2-methyl-6,7-dihydropyrazolo[1,5-a]pyrimidin-4(5H)-yl)-N-(6-(6-methylpyridin-3-yl)pyridazin-3-yl)-4-oxobutanamide], the pIC50 was > 7.00.

For `Cc1cc2n(n1)CCCN2C(=O)CCC(=O)Nc1ccc(-c2cncc(Cl)c2)nc1` [Compound 108, N-(5′-chloro-[2,3′-bipyridin]-5-yl)-4-(2-methyl-6,7-dihydropyrazolo[1,5-a]pyrimidin-4(5H)-yl)-4-oxobutanamide], the pIC50 was > 7.00.

With `Cc1cc2n(n1)CCCN2C(=O)CCC(=O)Nc1ccc(-c2cncc(F)c2)nc1` [Compound 109, N-(5′-fluoro-[2,3′-bipyridin]-5-yl)-4-(2-methyl-6,7-dihydropyrazolo[1,5-a]pyrimidin-4(5H)-yl)-4-oxobutanamide] the pIC50 was > 7.00.

`Cc1cc2n(n1)CCCN2C(=O)CCC(=O)Nc1cnc(-c2cccnc2)c(F)c1` [Compound 111, N-(3-fluoro-2,3′-bipyridin-5-yl)-4-(2-methyl-6,7-dihydropyrazolo[1,5-a]pyrimidin-4(5H)-yl)-4-oxobutanamide] was tested, and the pIC50 was > 7.00.

For `Cc1cc2n(n1)CCCN2C(=O)CCC(=O)Nc1ccc(-c2cncc(N)c2)nc1` [Compound 112, N-(5′-amino-2,3′-bipyridin-5-yl)-4-(2-methyl-6,7-dihydropyrazolo[1,5-a]pyrimidin-4(5H)-yl)-4-oxobutanamide], the pIC50 was > 6.00.
